Counter-ions that a name gives are not always drawn.
Tests used:
[1] = target: Beta-1 adrenergic receptor (Cavia porcellus) (UniProt B0FL73)
[2] = target: Beta-2 adrenergic receptor (Cavia porcellus) (UniProt Q8K4Z4); conditions: Trachea
[3] = Acid dissociation constant was determined; format: ADME
[4] = target: Beta-1 adrenergic receptor (Cavia porcellus) (UniProt B0FL73); remark: listed apart in the source

Beta-1 adrenergic receptor (Cavia porcellus), sequence (B0FL73 1-467): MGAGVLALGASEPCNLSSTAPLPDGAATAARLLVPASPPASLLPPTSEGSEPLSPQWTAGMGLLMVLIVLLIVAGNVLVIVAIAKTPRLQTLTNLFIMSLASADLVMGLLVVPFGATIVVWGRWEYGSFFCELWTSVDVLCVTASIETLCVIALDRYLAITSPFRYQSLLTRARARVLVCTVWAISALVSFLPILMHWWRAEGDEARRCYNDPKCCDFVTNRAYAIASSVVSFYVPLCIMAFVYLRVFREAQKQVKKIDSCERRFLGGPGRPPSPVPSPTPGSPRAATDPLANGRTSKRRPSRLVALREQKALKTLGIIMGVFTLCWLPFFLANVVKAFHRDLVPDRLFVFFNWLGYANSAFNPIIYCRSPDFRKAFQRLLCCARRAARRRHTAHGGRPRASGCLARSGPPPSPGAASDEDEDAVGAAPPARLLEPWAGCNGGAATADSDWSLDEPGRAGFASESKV
Beta-2 adrenergic receptor (Cavia porcellus), sequence (Q8K4Z4 whole entry, looked up): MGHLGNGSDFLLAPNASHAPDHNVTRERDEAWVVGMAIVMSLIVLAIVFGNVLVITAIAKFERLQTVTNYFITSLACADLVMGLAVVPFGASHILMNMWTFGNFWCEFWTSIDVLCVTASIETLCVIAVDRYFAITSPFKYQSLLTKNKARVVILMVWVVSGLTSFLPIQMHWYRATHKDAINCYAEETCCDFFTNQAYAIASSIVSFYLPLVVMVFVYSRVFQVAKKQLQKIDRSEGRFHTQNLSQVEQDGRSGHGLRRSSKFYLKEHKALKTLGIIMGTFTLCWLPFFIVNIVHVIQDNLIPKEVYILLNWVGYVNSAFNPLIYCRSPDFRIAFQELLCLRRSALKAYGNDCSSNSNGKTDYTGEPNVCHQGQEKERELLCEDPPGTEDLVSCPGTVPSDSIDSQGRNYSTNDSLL

IAR [1] | IAR [2] | pKa [3] | pD2 [4] | Compound
0.96 | 0.95 | 8.11 | – | COc1cc(CC2NCCc3c2cc(O)c(O)c3F)cc(OC)c1OC (stereo not drawn)
– | – | 7.86 | – | COc1cc(CC2NCCc3cc(O)c(O)c(F)c32)cc(OC)c1OC (stereo not drawn)
1 | 0.95 | 8.77 | 7.52 | COc1cc(CC2NCCc3cc(O)c(O)cc32)cc(OC)c1OC (stereo not drawn) [TRETOQUINOL HYDROCHLORIDE]
